{"source": "paper PMC3735122", "about": "(mBio, 2013)", "origin": "cited, not measured here"}
{"system": "seasonal H3N2 isolates with R292K NA mutation", "details": "cited from earlier work"}
{"smiles": "CCC(CC)O[C@@H]1C=C(C(=O)O)C[C@H](N)[C@H]1NC(C)=O", "note": "[oseltamivir carboxylate]", "sensitivity of seasonal H3N2 isolates with R292K mutation": "significantly reduced sensitivity"}
{"smiles": "CCC(CC)[C@H](NC(C)=O)[C@@H]1[C@H](O)[C@@H](C(=O)O)C[C@H]1N=C(N)N", "note": "[peramivir]", "sensitivity of seasonal H3N2 isolates with R292K mutation": "intermediate resistance"}
{"smiles": "CC(=O)N[C@H]1[C@H]([C@H](O)[C@H](O)CO)OC(C(=O)O)=C[C@@H]1N=C(N)N", "note": "[zanamivir]", "sensitivity of seasonal H3N2 isolates with R292K mutation": "slightly reduced sensitivity"}
